Measurements published in patent publication US12491170B2, “Stable treprostinil prodrugs” (United Therapeutics Corporation, priority 2020, dated 2025).

Assay: Stability in cryopreserved hepatocytes, rat
Settings: not given

CCCCCC(CCC1C(O)CC2Cc3c(cccc3OCC(=O)O)CC21)OC(=O)c1ccc(O)cc1 (stereo not drawn) [LXVIII] and CCCCCC(CCC1C(O)CC2Cc3c(cccc3OCC(=O)O)CC21)OC(=O)c1ccc(O)c(O)c1 (stereo not drawn) [LXVI] are the same in “Trep Concentration (μM) 0 min” value: 0 µM for the first, 0 µM for the second.

CCCCCC(CCC1C(O)CC2Cc3c(cccc3OCC(=O)O)CC21)OC(=O)c1ccc(O)cc1 (stereo not drawn) [LXVIII] and CCCCCC(CCC1C(O)CC2Cc3c(cccc3OCC(=O)O)CC21)OC(=O)c1ccc(O)c(O)c1 (stereo not drawn) [LXVI] are the same in “Trep Concentration (μM) 15 min” value: 0 µM for the first, 0 µM for the second.

Compared with CCCCCC(CCC1C(O)CC2Cc3c(cccc3OCC(=O)O)CC21)OC(=O)c1ccc(O)cc1 (stereo not drawn) [LXVIII], CCCCCC(CCC1C(O)CC2Cc3c(cccc3OCC(=O)O)CC21)OC(=O)c1ccc(O)c(O)c1 (stereo not drawn) [LXVI] is lower in “Trep Concentration (μM) 30 min” value: 0.00403 µM for the first, 0 µM for the second.

Going from CCCCCC(CCC1C(O)CC2Cc3c(cccc3OCC(=O)O)CC21)OC(=O)c1ccc(O)cc1 (stereo not drawn) [LXVIII] to CCCCCC(CCC1C(O)CC2Cc3c(cccc3OCC(=O)O)CC21)OC(=O)c1ccc(O)c(O)c1 (stereo not drawn) [LXVI], the “Trep Concentration (μM) 60 min” value falls from 0.00545 µM to 0 µM.

First: CCCCCC(CCC1C(O)CC2Cc3c(cccc3OCC(=O)O)CC21)OC(=O)c1ccc(O)cc1 (stereo not drawn) [LXVIII]
Second: CCCCCC(CCC1C(O)CC2Cc3c(cccc3OCC(=O)O)CC21)OC(=O)c1ccc(O)c(O)c1 (stereo not drawn) [LXVI]
The “Trep Concentration (μM) 120 min” value of the first is higher: 0.00743 µM for the first, 0 µM for the second.

Same assay, conditions: rat

First: CCCCCC(CCC1C(O)CC2Cc3c(cccc3OCC(=O)O)CC21)OC(=O)c1ccc(O)cc1 (stereo not drawn) [LXVIII]
Second: CCCCCC(CCC1C(O)CC2Cc3c(cccc3OCC(=O)O)CC21)OC(=O)c1ccc(O)c(O)c1 (stereo not drawn) [LXVI]
The “AUC” value of the first is higher: 0.56 µmol·min/L for the first, 0.00 µmol·min/L for the second.

Assay: Stability in cryopreserved hepatocytes, dog
Settings: not given

CCCCCC(CCC1C(O)CC2Cc3c(cccc3OCC(=O)O)CC21)OC(=O)c1ccc(O)cc1 (stereo not drawn) [LXVIII] and CCCCCC(CCC1C(O)CC2Cc3c(cccc3OCC(=O)O)CC21)OC(=O)c1ccc(O)c(O)c1 (stereo not drawn) [LXVI] are the same in “Trep Concentration (μM) 0 min” value: 0 µM for the first, 0 µM for the second.

Going from CCCCCC(CCC1C(O)CC2Cc3c(cccc3OCC(=O)O)CC21)OC(=O)c1ccc(O)cc1 (stereo not drawn) [LXVIII] to CCCCCC(CCC1C(O)CC2Cc3c(cccc3OCC(=O)O)CC21)OC(=O)c1ccc(O)c(O)c1 (stereo not drawn) [LXVI], the “Trep Concentration (μM) 15 min” value falls from 0.0142 µM to 0 µM.

Going from CCCCCC(CCC1C(O)CC2Cc3c(cccc3OCC(=O)O)CC21)OC(=O)c1ccc(O)cc1 (stereo not drawn) [LXVIII] to CCCCCC(CCC1C(O)CC2Cc3c(cccc3OCC(=O)O)CC21)OC(=O)c1ccc(O)c(O)c1 (stereo not drawn) [LXVI], the “Trep Concentration (μM) 30 min” value falls from 0.00583 µM to 0 µM.

Going from CCCCCC(CCC1C(O)CC2Cc3c(cccc3OCC(=O)O)CC21)OC(=O)c1ccc(O)cc1 (stereo not drawn) [LXVIII] to CCCCCC(CCC1C(O)CC2Cc3c(cccc3OCC(=O)O)CC21)OC(=O)c1ccc(O)c(O)c1 (stereo not drawn) [LXVI], the “Trep Concentration (μM) 60 min” value falls from 0.00715 µM to 0 µM.

First: CCCCCC(CCC1C(O)CC2Cc3c(cccc3OCC(=O)O)CC21)OC(=O)c1ccc(O)cc1 (stereo not drawn) [LXVIII]
Second: CCCCCC(CCC1C(O)CC2Cc3c(cccc3OCC(=O)O)CC21)OC(=O)c1ccc(O)c(O)c1 (stereo not drawn) [LXVI]
The “Trep Concentration (μM) 120 min” value of the first is 2.5-fold higher: 0.0129 µM for the first, 0.00519 µM for the second.

Same assay, conditions: dog

First: CCCCCC(CCC1C(O)CC2Cc3c(cccc3OCC(=O)O)CC21)OC(=O)c1ccc(O)cc1 (stereo not drawn) [LXVIII]
Second: CCCCCC(CCC1C(O)CC2Cc3c(cccc3OCC(=O)O)CC21)OC(=O)c1ccc(O)c(O)c1 (stereo not drawn) [LXVI]
The “AUC” value of the first is higher: 1.05 µmol·min/L for the first, 0.16 µmol·min/L for the second.

Assay: not given
Settings: dog

First: CCCCCC(CCC1C(O)CC2Cc3c(cccc3OCC(=O)O)CC21)OC(=O)c1ccc(O)cc1 (stereo not drawn) [LXVIII]
Second: CCCCCC(CCC1C(O)CC2Cc3c(cccc3OCC(=O)O)CC21)OC(=O)c1ccc(O)c(O)c1 (stereo not drawn) [LXVI]
The AUC of the first is higher: 1.98 µmol·min/L for the first, 0.17 µmol·min/L for the second.

Assay: Stability in cryopreserved hepatocytes, human
Settings: not given

CCCCCC(CCC1C(O)CC2Cc3c(cccc3OCC(=O)O)CC21)OC(=O)c1ccc(O)cc1 (stereo not drawn) [LXVIII] and CCCCCC(CCC1C(O)CC2Cc3c(cccc3OCC(=O)O)CC21)OC(=O)c1ccc(O)c(O)c1 (stereo not drawn) [LXVI] are the same in “Trep Concentration (μM) 0 min” value: 0 µM for the first, 0 µM for the second.

First: CCCCCC(CCC1C(O)CC2Cc3c(cccc3OCC(=O)O)CC21)OC(=O)c1ccc(O)cc1 (stereo not drawn) [LXVIII]
Second: CCCCCC(CCC1C(O)CC2Cc3c(cccc3OCC(=O)O)CC21)OC(=O)c1ccc(O)c(O)c1 (stereo not drawn) [LXVI]
The “Trep Concentration (μM) 15 min” value of the first is 7-fold higher: 0.147 µM for the first, 0.0209 µM for the second.

First: CCCCCC(CCC1C(O)CC2Cc3c(cccc3OCC(=O)O)CC21)OC(=O)c1ccc(O)cc1 (stereo not drawn) [LXVIII]
Second: CCCCCC(CCC1C(O)CC2Cc3c(cccc3OCC(=O)O)CC21)OC(=O)c1ccc(O)c(O)c1 (stereo not drawn) [LXVI]
The “Trep Concentration (μM) 30 min” value of the first is 13-fold higher: 0.194 µM for the first, 0.0147 µM for the second.

Going from CCCCCC(CCC1C(O)CC2Cc3c(cccc3OCC(=O)O)CC21)OC(=O)c1ccc(O)cc1 (stereo not drawn) [LXVIII] to CCCCCC(CCC1C(O)CC2Cc3c(cccc3OCC(=O)O)CC21)OC(=O)c1ccc(O)c(O)c1 (stereo not drawn) [LXVI], the “Trep Concentration (μM) 120 min” value falls from 0.17 µM to 0.0237 µM (7.2-fold).

In the case of CCCCCC(CCC1C(O)CC2Cc3c(cccc3OCC(=O)O)CC21)OC(=O)c1ccc(O)c(O)c1 (stereo not drawn) [LXVI], the “Trep Concentration (μM) 60 min” value is reported as 0.0184 µM.

Same assay, conditions: human

Compared with CCCCCC(CCC1C(O)CC2Cc3c(cccc3OCC(=O)O)CC21)OC(=O)c1ccc(O)cc1 (stereo not drawn) [LXVIII], CCCCCC(CCC1C(O)CC2Cc3c(cccc3OCC(=O)O)CC21)OC(=O)c1ccc(O)c(O)c1 (stereo not drawn) [LXVI] is lower in “AUC” value: 20.45 µmol·min/L for the first, 2.18 µmol·min/L for the second.

Assay: Stability in liver microsomes, dog
Settings: not given

First: CCCCCC(CCC1C(O)CC2Cc3c(cccc3OCC(=O)O)CC21)OC(=O)c1ccc(O)cc1 (stereo not drawn) [LXVIII]
Second: CCCCCC(CCC1C(O)CC2Cc3c(cccc3OCC(=O)O)CC21)OC(=O)c1ccc(O)c(O)c1 (stereo not drawn) [LXVI]
The “Trep Concentration 10 min” value of the first is higher: 0.0246 µM for the first, 0 µM for the second.

Compared with CCCCCC(CCC1C(O)CC2Cc3c(cccc3OCC(=O)O)CC21)OC(=O)c1ccc(O)cc1 (stereo not drawn) [LXVIII], CCCCCC(CCC1C(O)CC2Cc3c(cccc3OCC(=O)O)CC21)OC(=O)c1ccc(O)c(O)c1 (stereo not drawn) [LXVI] is lower in “Trep Concentration 20 min” value: 0.0324 µM for the first, 0 µM for the second.

Going from CCCCCC(CCC1C(O)CC2Cc3c(cccc3OCC(=O)O)CC21)OC(=O)c1ccc(O)cc1 (stereo not drawn) [LXVIII] to CCCCCC(CCC1C(O)CC2Cc3c(cccc3OCC(=O)O)CC21)OC(=O)c1ccc(O)c(O)c1 (stereo not drawn) [LXVI], the “Trep Concentration 30 min” value falls from 0.0375 µM to 0.00396 µM (9.5-fold).

First: CCCCCC(CCC1C(O)CC2Cc3c(cccc3OCC(=O)O)CC21)OC(=O)c1ccc(O)cc1 (stereo not drawn) [LXVIII]
Second: CCCCCC(CCC1C(O)CC2Cc3c(cccc3OCC(=O)O)CC21)OC(=O)c1ccc(O)c(O)c1 (stereo not drawn) [LXVI]
The “Trep Concentration 60 min” value of the first is 6.3-fold higher: 0.0382 µM for the first, 0.00602 µM for the second.

For CCCCCC(CCC1C(O)CC2Cc3c(cccc3OCC(=O)O)CC21)OC(=O)c1ccc(O)c(O)c1 (stereo not drawn) [LXVI], the “Trep Concentration 0 min” value was 0 µM.

Assay: not given
Settings: rat

First: CCCCCC(CCC1C(O)CC2Cc3c(cccc3OCC(=O)O)CC21)OC(=O)c1ccc(O)cc1 (stereo not drawn) [LXVIII]
Second: CCCCCC(CCC1C(O)CC2Cc3c(cccc3OCC(=O)O)CC21)OC(=O)c1ccc(O)c(O)c1 (stereo not drawn) [LXVI]
The AUC of the first is higher: 0.69 µmol·min/L for the first, 0.26 µmol·min/L for the second.

Assay: Stability in liver microsomes, rat
Settings: not given

First: CCCCCC(CCC1C(O)CC2Cc3c(cccc3OCC(=O)O)CC21)OC(=O)c1ccc(O)cc1 (stereo not drawn) [LXVIII]
Second: CCCCCC(CCC1C(O)CC2Cc3c(cccc3OCC(=O)O)CC21)OC(=O)c1ccc(O)c(O)c1 (stereo not drawn) [LXVI]
The “Trep Concentration 0 min” value of the first is higher: 0.00607 µM for the first, 0 µM for the second.

Compared with CCCCCC(CCC1C(O)CC2Cc3c(cccc3OCC(=O)O)CC21)OC(=O)c1ccc(O)cc1 (stereo not drawn) [LXVIII], CCCCCC(CCC1C(O)CC2Cc3c(cccc3OCC(=O)O)CC21)OC(=O)c1ccc(O)c(O)c1 (stereo not drawn) [LXVI] is 2.4-fold lower in “Trep Concentration 10 min” value: 0.00792 µM for the first, 0.00332 µM for the second.

Compared with CCCCCC(CCC1C(O)CC2Cc3c(cccc3OCC(=O)O)CC21)OC(=O)c1ccc(O)cc1 (stereo not drawn) [LXVIII], CCCCCC(CCC1C(O)CC2Cc3c(cccc3OCC(=O)O)CC21)OC(=O)c1ccc(O)c(O)c1 (stereo not drawn) [LXVI] is 2.9-fold lower in “Trep Concentration 20 min” value: 0.0105 µM for the first, 0.00368 µM for the second.

Going from CCCCCC(CCC1C(O)CC2Cc3c(cccc3OCC(=O)O)CC21)OC(=O)c1ccc(O)cc1 (stereo not drawn) [LXVIII] to CCCCCC(CCC1C(O)CC2Cc3c(cccc3OCC(=O)O)CC21)OC(=O)c1ccc(O)c(O)c1 (stereo not drawn) [LXVI], the “Trep Concentration 30 min” value falls from 0.0127 µM to 0.00422 µM (3-fold).

Compared with CCCCCC(CCC1C(O)CC2Cc3c(cccc3OCC(=O)O)CC21)OC(=O)c1ccc(O)cc1 (stereo not drawn) [LXVIII], CCCCCC(CCC1C(O)CC2Cc3c(cccc3OCC(=O)O)CC21)OC(=O)c1ccc(O)c(O)c1 (stereo not drawn) [LXVI] is 2-fold lower in “Trep Concentration 60 min” value: 0.0145 µM for the first, 0.00722 µM for the second.

Assay: Stability in liver microsomes, human
Settings: not given

Going from CCCCCC(CCC1C(O)CC2Cc3c(cccc3OCC(=O)O)CC21)OC(=O)c1ccc(O)cc1 (stereo not drawn) [LXVIII] to CCCCCC(CCC1C(O)CC2Cc3c(cccc3OCC(=O)O)CC21)OC(=O)c1ccc(O)c(O)c1 (stereo not drawn) [LXVI], the “Trep Concentration 0 min” value falls from 0.201 µM to 0.0131 µM (15-fold).

Going from CCCCCC(CCC1C(O)CC2Cc3c(cccc3OCC(=O)O)CC21)OC(=O)c1ccc(O)cc1 (stereo not drawn) [LXVIII] to CCCCCC(CCC1C(O)CC2Cc3c(cccc3OCC(=O)O)CC21)OC(=O)c1ccc(O)c(O)c1 (stereo not drawn) [LXVI], the “Trep Concentration 10 min” value falls from 0.237 µM to 0.0155 µM (15-fold).

For CCCCCC(CCC1C(O)CC2Cc3c(cccc3OCC(=O)O)CC21)OC(=O)c1ccc(O)cc1 (stereo not drawn) [LXVIII], the “Trep Concentration 20 min” value was 0.246 µM.

Compared with CCCCCC(CCC1C(O)CC2Cc3c(cccc3OCC(=O)O)CC21)OC(=O)c1ccc(O)cc1 (stereo not drawn) [LXVIII], CCCCCC(CCC1C(O)CC2Cc3c(cccc3OCC(=O)O)CC21)OC(=O)c1ccc(O)c(O)c1 (stereo not drawn) [LXVI] is 15-fold lower in “Trep Concentration 30 min” value: 0.252 µM for the first, 0.0168 µM for the second.

First: CCCCCC(CCC1C(O)CC2Cc3c(cccc3OCC(=O)O)CC21)OC(=O)c1ccc(O)cc1 (stereo not drawn) [LXVIII]
Second: CCCCCC(CCC1C(O)CC2Cc3c(cccc3OCC(=O)O)CC21)OC(=O)c1ccc(O)c(O)c1 (stereo not drawn) [LXVI]
The “Trep Concentration 60 min” value of the first is 13-fold higher: 0.178 µM for the first, 0.0141 µM for the second.

Same assay, conditions: human

Compared with CCCCCC(CCC1C(O)CC2Cc3c(cccc3OCC(=O)O)CC21)OC(=O)c1ccc(O)cc1 (stereo not drawn) [LXVIII], CCCCCC(CCC1C(O)CC2Cc3c(cccc3OCC(=O)O)CC21)OC(=O)c1ccc(O)c(O)c1 (stereo not drawn) [LXVI] is lower in AUC: 13.55 µmol·min/L for the first, 0.94 µmol·min/L for the second.
